Results as given in patent EP1101499A2, “Diagnostic agents for pancreatic exocrine function” (Tokyo Gas Company Limited, priority 1999, dated 2001).
Several values for one entry are separate records, joined by “and”; a condition that tells them apart may be missing. Identical values can stand only once.

Key:
[1] = tested on: pancreatic exocrine function; assay: 13C-breath test after oral administration to chronic pancreatitis (oleic acid model) and control/normal rats; type: in vivo, rat; conditions: for Δ^13C value at 20 minutes after the administration / Δ^13C value at 10 minutes after the administration: group value n=4, 250 mg/kg orally; for Δ^13C (mean) value at 15 minutes after the administration: mean n=2, 420 mg/kg orally; for Δ^13C value at 30 minutes after the administration: group value n=4, 30 mg/kg orally
Procedure: […] The rat of 9 weeks old was fixed without anesthesia in a rat holder for a microwave irradiation apparatus. The breath was collected at a rate of about 100 to 300 ml/min using a stroke pump (Variable Stroke Pump VS-500, Shibata Kagaku Kogyo) and introduced directly to a flow cell of a ^13CO2 analyzer EX-130S (Nihon Bunko). A Perma Pure drier (MD-050-12P, Perma Pure INC.) was set between the rat holder and stroke pump to remove out water vapor in the breath. CO2 concentration was stabilized, the rat was once removed out of the rat holder and Bz-DL-Phe-(^13C-Leu).Na dissolved in distilled water was administered into the stomach using an oral sonde.
Output data from the ^13CO2 analyzer were AD converted and put into a personal computer (Apple Power Macintosh 8500). Using a data processing soft ware Lab VIEW (National Instruments), 10 data points at every 100 msec were integrated and averaged in an interval of 5 seconds and converted to ^13C atom %, Δ^13C (‰), and CO2 concentration (%). In this manner, the ^13C breath test was continuously carried out. […] CO2 concentration in the collected breath was held at 3 ± 0.5%.
Δ^13C (%o) was calculated from the ^13C concentration in the exhaled CO2 at each time point (^13C tmin) and the ^13C concentration in standard CO2 (^13C std) according to the following equation: Δ^13 (C (‰) - [()^13 (C tmin -)^13 (C 0min)/)^13 C std] x 1000 [formula]

chymotrypsin = assay: Degradation by chymotrypsin, released leucine determined by ninhydrin reaction; type: biochemical, bovine; conditions: 23 mM substrate, 0.16 mg/ml chymotrypsin, 20 mM HEPPS-Na pH 8.0, 37°C, 15 minutes
Procedure: Bz-DL-Phe-(^13C-Leu) was reacted with chymotrypsin and the degradation product, leucine, generated upon action of chymotrypsin was quantitatively determined by ninhydrin reaction. The reaction was carried out in 20 mM HEPPS-Na (pH 8.0), 23 mM Bz-DL-Phe- (^13C-Leu), 0.16 mg/ml chymotrypsin (from bovine pancreas, Worthington Biochemical Corporation, #1432, Lot 37A906) at 37°C for 15 minutes. After reaction, 50 µl of citrate buffer (citric acid monohydrate), 20 µl of ninhydrin solution (50 mg/ml solution in methyl cellosolve) and 100 µl of KCN solution (0.01 M aqueous KCN solution diluted 50 times with methyl cellosolve) were added to 100 µl of the reaction mixture and heated at 100°C for 15 minutes. After cooling the ninhydrin reaction mixture to room temperature, 150 µl of 60% (V/V) ethanol was added to 100 µl of the ninhydrin reaction mixture and stirred followed by determination of an absorbance at a wave length of 570 nm. An experiment wherein all the reactions that were carried out without adding Bz-DL-Phe-(^13C-Leu) was taken as a "blank," and leucine was used as a standard.

[2] = tested on: pancreatic exocrine function; assay: PFD test: oral BT-PABA, PABA excretion rate in urine; type: in vivo, rat; conditions: specificity 100%
Procedure: The rats of the model of chronic pancreatitis and control rats, which were kept for 3 to 4 weeks after the operation, were made to fast from 9:00 AM. At 4:00 PM, 3 mg/ml of BT-PABA (PFD solution for internal use, Eisai) was orally administered in an amount of 15 mg/kg. Urine was collected for 16 hours until 9:00 AM of the next day. The amount of the collected urine and the PABA concentration in the urine were determined using a PABA measuring kit to determine the excretion rate in urine (PFD test).

[3] = individual chronic pancreatitis rats #1-#4, sodium salt 250 mg/kg orally
[4] = individual normal rats #1-#4, sodium salt 250 mg/kg orally

With Bz-Tyr-(^13C-Leu).Na the “Δ^13C value at 20 minutes after the administration” value ([1]; chronic pancreatitis rats) was 3.66 ± 3.24 %o and the “Δ^13C value at 20 minutes after the administration” value ([1]; normal rats) was 69.53 ± 32.50 %o.

For Bz-DL-Phe-(^13C-Leu), the rate of degradation (chymotrypsin) was 1.72 nmole/mg chymotrypsin/min.

With Bz-Tyr-(^13C-Leu) the “Δ^13C (%o) at 20 min” value [1, 3] was 8.76 %o and 3.58 %o and 2.44 %o and -0.15 %o and the “Δ^13C (%o) at 20 min” value [1, 4] was 111.32 %o and 65.76 %o and 21.02 %o and 80.02 %o.

With Bz-DL-Phe-(^13C-Leu).Na the sensitivity ([1]; 250 mg/kg orally, Δ^13C at 10 minutes as check value, cut off set for specificity 100%, chronic pancreatitis n=8, control n=4) was 100% and the “Δ^13C (‰) values at 10 minutes after the administration” value ([1]; chronic pancreatitis rats (n=8) compared with control rats (n=4), 250 mg/kg orally) was “smaller than the smallest value of Δ ^13C (‰) for the control rats”.

For “Bz-Ala-Ala-Ala-Ala-(^13C-Gly)-Phe-Leu.Na”, the “Δ^13C (mean) value at 15 minutes after the administration” value ([1]; chronic pancreatitis rats) was 0.61 %o and the “Δ^13C (mean) value at 15 minutes after the administration” value ([1]; normal rats) was 33.32 %o.

Bz-L-Phe-(^13C-Leu).Na was tested, and the “Δ^13C value at 10 minutes after the administration” value ([1]; chronic pancreatitis rats) was 6.97 ± 6.09 %o and the “Δ^13C value at 10 minutes after the administration” value ([1]; normal rats) was 115.02 ± 71.26 %o.

Bz-L-Phe-(^13C-Leu) was tested, and the “Δ^13C (%o) at 10 min” value [1, 3] was 1.61 %o and 3.28 %o and 17.21 %o and 5.77 %o and the “Δ^13C (%o) at 10 min” value [1, 4] was 31.29 %o and 60.25 %o and 165.37 %o and 203.16 %o.

Bz-Ala-Ala-Ala-Ala-(^13C-Gly)-Phe-Leu was tested, and the “Δ^13C (%o) at 15 min” value ([1]; individual chronic pancreatitis rats #1-#2, sodium salt 420 mg/kg orally) was -1.90 %o and 3.12 %o and the “Δ^13C (%o) at 15 min” value ([1]; individual normal rats #1-#2, sodium salt 420 mg/kg orally) was 23.47 %o and 43.16 %o.

For Arg-(^13C-Leu), the “Δ^13C value at 30 minutes after the administration” value ([1]; chronic pancreatitis rats) was 4.37 ± 1.83 %o, the “Δ^13C (%o) at 30 min” value ([1]; individual chronic pancreatitis rats #1-#4, 30 mg/kg orally) was 3.74 %o and 6.97 %o and 4.87 %o and 1.92 %o and the “Δ^13C (%o) at 30 min” value ([1]; individual normal rats #1-#4, 30 mg/kg orally) was 10.30 %o and 13.74 %o and 15.37 %o and 10.08 %o. For the same compound, the “Δ^13C value at 30 minutes after the administration” value ([1]; normal rats) was 12.37 ± 2.26 %o.

`O=C(O)c1ccc(NC(=O)[C@H](Cc2ccc(O)cc2)NC(=O)c2ccccc2)cc1` [PFD, N-benzoyl-L-tyrosyl-p-aminobenzoic acid] was tested, and the “sensitivity in the PFD test” value ([2]; 15 mg/kg orally, same group of rats as the Bz-DL-Phe-(^13C-Leu) breath test (n=8 / n=4)) was 50%, the “sensitivity in the PFD test” value ([2]; same group of rats as the Bz-Ala-(^13C-Ala) breath test (n=8 / n=7)) was 63% and the “sensitivity in the PFD test” value ([2]; same group of rats as the Bz-Gly-(^13C-Leu) breath test (n=10 / n=10)) was 50%.

Compound Bz-Gly-(^13C-Leu)-Na has a sensitivity ([1]; 50 mg/kg orally, Δ^13C at 18 minutes as check value, specificity 100%, chronic pancreatitis n=10, normal n=10) of 80%.
